# Results taken from patent US8822464B2, “N-aryl-piperazine derivatives and their use as positive allosteric modulators of mGluR5 receptors” (Boehringer Ingelheim International GmbH, priority 2011, dated 2014).
# Target: T1, human recombinant mGluR5 (Homo sapiens, UniProt P41594)
# T1 construct: expressed in transfected cells; host or cells: HEK 293 cell line; cultured with tetracycline, hygromycin and geneticin; tetracycline withdrawn 3-7 days before the assay
# Test: positive modulation of mGluR5, calcium based FLIPR assay in HEK 293 cells
# Settings: HEK 293 cell line expressing human recombinant mGluR5; peak height of Ca release fluorescence signal after glutamate at approximately 5% basal stimulation; nonlinear regression
# Summary of the method: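 HEK 293 cells expressing human mGluR5, tetracycline-free 3-7 days, Calcium-4 dye-loaded in Ringer solution pH 7.4; 1% DMSO final. Compound added 5 min before glutamate at ~5% of maximal effect; peak Ca2+ fluorescence normalized to basal glutamate (100%) and 10 μM CDPPB (200%); EC50 by nonlinear regression.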
# T1 sequence (P41594 21-1212): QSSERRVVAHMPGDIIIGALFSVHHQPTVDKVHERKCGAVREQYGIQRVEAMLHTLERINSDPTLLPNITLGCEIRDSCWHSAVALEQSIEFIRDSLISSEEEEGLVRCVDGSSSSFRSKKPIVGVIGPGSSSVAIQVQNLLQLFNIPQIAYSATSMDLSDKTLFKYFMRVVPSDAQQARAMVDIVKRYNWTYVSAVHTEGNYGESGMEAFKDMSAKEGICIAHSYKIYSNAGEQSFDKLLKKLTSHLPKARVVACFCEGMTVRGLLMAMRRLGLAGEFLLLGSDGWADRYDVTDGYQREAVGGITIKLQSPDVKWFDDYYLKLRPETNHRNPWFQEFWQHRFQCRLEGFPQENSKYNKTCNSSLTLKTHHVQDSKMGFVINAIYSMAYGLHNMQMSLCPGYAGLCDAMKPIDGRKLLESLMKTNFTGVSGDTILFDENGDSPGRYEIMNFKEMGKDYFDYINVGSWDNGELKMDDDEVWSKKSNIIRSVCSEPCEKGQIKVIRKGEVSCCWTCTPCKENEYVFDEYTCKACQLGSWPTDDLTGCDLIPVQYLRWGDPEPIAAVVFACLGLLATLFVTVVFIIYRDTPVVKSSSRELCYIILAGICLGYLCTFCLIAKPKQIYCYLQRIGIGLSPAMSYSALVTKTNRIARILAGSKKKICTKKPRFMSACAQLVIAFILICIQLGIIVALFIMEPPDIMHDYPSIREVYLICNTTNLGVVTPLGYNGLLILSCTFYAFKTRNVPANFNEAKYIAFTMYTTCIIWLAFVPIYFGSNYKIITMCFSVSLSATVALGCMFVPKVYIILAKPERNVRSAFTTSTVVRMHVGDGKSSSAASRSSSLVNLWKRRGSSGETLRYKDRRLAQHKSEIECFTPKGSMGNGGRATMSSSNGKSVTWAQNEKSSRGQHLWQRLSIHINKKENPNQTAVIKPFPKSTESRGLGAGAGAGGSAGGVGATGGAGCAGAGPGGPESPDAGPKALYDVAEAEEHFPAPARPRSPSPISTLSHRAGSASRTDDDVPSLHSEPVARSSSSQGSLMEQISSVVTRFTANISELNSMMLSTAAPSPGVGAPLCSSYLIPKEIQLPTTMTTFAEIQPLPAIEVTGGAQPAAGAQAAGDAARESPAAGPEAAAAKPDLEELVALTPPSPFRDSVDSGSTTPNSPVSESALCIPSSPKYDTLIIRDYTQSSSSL
row,Compound,EC50 [nM]
1,COCc1cc(-c2ccc(F)c(C)c2)nn1CC(=O)N1CCN(c2ccccn2)CC1 [Example 7.02.16],237
2,Cc1cc(-c2cc(C(C)C)n(CC(=O)N3CCN(c4cccnn4)CC3)n2)ccc1F [Example 7.01.29],158
3,COc1cc(N2CCN(C(=O)Cn3nc(-c4ccc(F)c(C)c4)cc3CC(C)C)CC2)ncn1 [Example 7.01.121],34
4,Cc1cc(-c2cc(C3CCCCC3)n(CC(=O)N3CCN(c4ncccn4)CC3)n2)ccc1F [Example 7.01.34],60
5,CCCc1cc(-c2ccc(F)c(C)n2)nn1CC(=O)N1CCN(c2ccccn2)CC1 [Example 7.01.186],441
6,Cc1ccc(-c2cc(-c3ccccc3)n(CC(=O)N3CCN(c4ncccn4)CC3)n2)nc1C [Example 7.01.124],8
7,COc1cc(N2CCN(C(=O)Cn3nc(-c4ccc(F)cn4)cc3-c3ccc(F)cc3)CC2)ncn1 [Example 7.01.63],94
